In US20220218719A1, “MATRIX COMPOSITION COMPRISING (S)-5-BENZYL-N-(5-METHYL-4-OXO-2,3,4,5-TETRAHYDROBENZO[B][1,4]OXAZEPIN-3-YL)-4H-1,2,4-TRIAZOLE-3-CARBOXAMIDE” (GLAXOSMITHKLINE INTELLECTUAL PROPERTY DEVELOPMENT LIMITED, priority 2019, published 2022) one finds half-life, Tmax and t1/2 data, which are given here for one compound.

Where two headings read alike, the source gives them in different places.

Series [1] can be described thus: Early clinical studies: PK profile of Compound 1 given as immediate release (IR) formulation. It counts as in vivo. As to conditions: human, plasma, oral. As to the method:
The formulations used in early clinical studies included a 0.1 mg/mL oral solution to support doses up to 5 mg; active-pharmaceutical-ingredient (API) in HPMC capsules for doses between 5 mg to 120 mg; and roller-compacted IR tablets of 10, 20 and 30 mg strength.
The pharmacokinetic (PK) profile of Compound 1 when administered as an immediate release (IR) formulation was characterized by rapid absorption and elimination with time to maximum concentration (Tmax) of approximately 2 hours post-dose. […] A majority of the systemic exposure to GSK2982772 was associated with the shorter half-life of 2-3 hours.

The conditions of series [2]: plasma/blood, 120 mg dose of IR formulation; cited from earlier work.

In the case of `CN1C(=O)[C@@H](NC(=O)c2nnc(Cc3ccccc3)[nH]2)COc2ccccc21` [Compound 1, (S)-5-benzyl-N-(5-methyl-4-oxo-2,3,4,5-tetrahydrobenzo[b][1,4]oxazepin-3-yl)-4H-1,2,4-triazole-3-carboxamide], the half-life in series [1] (phase until approximately 12 hours post-dose, read-out: elimination half-life (t1/2)) lay in the range of 2 to 3 h; in series [1] (read-out: slower terminal phase t1/2), 5 to 6 h. Further, the Tmax in series [1] (post-dose, read-out: time to maximum concentration (Tmax)) is approximately 2 h. Besides, the t1/2 in series [2] is 2 to 3 h.
